Source: patent US7196110B2, “N-substituted tricyclic 3-aminopyrazoles as inhibitors for the treatment of cell proliferative disorders” (Janssen Phamaceutica N.V., priority 2002, dated 2007)

Biological target: T1, PDGF-receptor beta enzyme comprising the tyrosine kinase domain (Homo sapiens, UniProt P09619)
T1 construct: from amino acid 545 to 1106 of GenBank Access NO: AAA36427
Assay: Inhibition of PDGF-receptor kinase activity (cell-free, PLC1 peptide, 33P Flashplate)
Assay type: biochemical
Details: PDGF-R kinase activity; for inhibition at 10 µM: compound at 10 uM, read-out: Percent Inhibition @ 10 uM; for IC50: read-out: IC50
Method in brief: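 The IC50 is the inhibitor level halving kinase activity relative to inhibitor-free wells, measured as 33P captured on a streptavidin-bound biotin-PLC1 peptide. The reaction ran 60 min at 30 °C in pH 8 Tris buffer with 1 mM DTT, 5 μM ATP and the 545–1106 kinase-domain enzyme.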

T1 sequence (P09619 545-1106): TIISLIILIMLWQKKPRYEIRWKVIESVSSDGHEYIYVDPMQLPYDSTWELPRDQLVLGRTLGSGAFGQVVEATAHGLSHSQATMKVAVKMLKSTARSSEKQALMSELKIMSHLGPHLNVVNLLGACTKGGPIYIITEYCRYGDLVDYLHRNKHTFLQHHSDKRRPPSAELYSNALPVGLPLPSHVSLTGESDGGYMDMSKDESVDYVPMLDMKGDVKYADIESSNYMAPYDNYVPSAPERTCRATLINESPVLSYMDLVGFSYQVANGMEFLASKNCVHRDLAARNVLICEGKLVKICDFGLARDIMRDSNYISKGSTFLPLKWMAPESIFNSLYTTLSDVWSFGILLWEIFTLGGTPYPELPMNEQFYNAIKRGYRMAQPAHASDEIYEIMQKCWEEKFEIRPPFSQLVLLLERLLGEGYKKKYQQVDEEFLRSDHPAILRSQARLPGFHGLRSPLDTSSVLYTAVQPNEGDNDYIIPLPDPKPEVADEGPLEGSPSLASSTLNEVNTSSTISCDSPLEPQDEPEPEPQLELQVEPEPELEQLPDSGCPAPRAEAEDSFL

| Compound | inhibition at 10 µM [%] | IC50 [nM] |
| --- | --- | --- |
| CC(C)Oc1cc2c(cc1OC(C)C)C(C)c1c-2n[nH]c1Nc1cccnc1 (centres unmarked) [Compound 352, (6,7-Diisopropoxy-4-methyl-2,4-dihydro-indeno[1,2-c]pyrazol-3-yl)-pyridin-3-yl-amine] | 86.5 | 755 |
| CC(C)Oc1cc2c(cc1OC(C)C)C(C)c1c-2n[nH]c1Nc1cccc(Br)c1 (centres unmarked) [Compound 353, (3-Bromo-phenyl)-(6,7-diisopropoxy-4-methyl-2,4-dihydro-indeno[1,2-c]pyrazol-3-yl)-amine] | 88 | 359 |
| CC(C)Oc1cc2c(cc1OC(C)C)C(C)c1c-2n[nH]c1Nc1ccc(F)c(Cl)c1 (centres unmarked) [Compound 354, (3-Chloro-4-fluoro-phenyl)-(6,7-diisopropoxy-4-methyl-2,4-dihydro-indeno[1,2-c]pyrazol-3-yl)-amine] | 62 | 2450 |
| COc1cccc(Nc2[nH]nc3c2C(C)c2cc(OC(C)C)c(OC(C)C)cc2-3)c1 (centres unmarked) [Compound 355, (6,7-Diisopropoxy-4-methyl-2,4-dihydro-indeno[1,2-c]pyrazol-3-yl)-(3-methoxy-phenyl)-amine] | 85 | 1030 |
| CC(C)Oc1cc2c(cc1OC(C)C)C(C)c1c-2n[nH]c1Nc1ccc(F)cc1 (centres unmarked) [Compound 356, (6,7-Diisopropoxy-4-methyl-2,4-dihydro-indeno[1,2-c]pyrazol-3-yl)-(4-fluoro-phenyl)-amine] | 70 | 1950 |
| COc1cc2c(cc1F)Cc1c-2n[nH]c1Nc1cccc(F)c1 [Compound 357, (6-Fluoro-7-methoxy-2,4-dihydro-indeno[1,2-c]pyrazol-3-yl)-(3-fluoro-phenyl)-amine] | 98.5 | 9.42 |
| Oc1cc2c(cc1O)-c1n[nH]c(Nc3cccc(F)c3)c1C2 [Compound 362, 3-(3-Fluoro-phenylamino)-2,4-dihydro-indeno[1,2-c]pyrazole-6,7-diol] | 80.5 | 784 |
| COc1cc2c(cc1F)Cc1c-2n[nH]c1Nc1cccnc1 [Compound 364, (6-Fluoro-7-methoxy-2,4-dihydro-indeno[1,2-c]pyrazol-3-yl)-pyridin-3-yl-amine] | 100 | 15.1 |
| CCOc1cc2c(cc1OCCCO)-c1n[nH]c(Nc3cccc(F)c3)c1C2 [Compound 365, 3-[6-Ethoxy-3-(3-fluoro-phenylamino)-2,4-dihydro-indeno[1,2-c]pyrazol-7-yloxy]-propan-1-ol] | 99.5 | 11.3 |
| CCOc1cc2c(cc1OCCCO)-c1n[nH]c(Nc3cccc(OC)c3)c1C2 [Compound 366, 3-[6-Ethoxy-3-(3-methoxy-phenylamino)-2,4-dihydro-indeno[1,2-c]pyrazol-7-yloxy]-propan-1-ol] | 100 | 12.1 |
| CCOc1cc2c(cc1OCCCO)-c1n[nH]c(Nc3cccc(Cl)c3)c1C2 [Compound 367, 3-[3-(3-Chloro-phenylamino)-6-ethoxy-2,4-dihydro-indeno[1,2-c]pyrazol-7-yloxy]-propan-1-ol] | 97 | 8.14 |
| CCOc1cc2c(cc1OCCCO)-c1n[nH]c(Nc3ccc(F)c(Cl)c3)c1C2 [Compound 368, 3-[3-(3-Chloro-4-fluoro-phenylamino)-6-ethoxy-2,4-dihydro-indeno[1,2-c]pyrazol-7-yloxy]-propan-1-ol] | 89.5 | 62.9 |
| OCCCOc1cc2c(cc1OCCCO)-c1n[nH]c(Nc3cccnc3)c1C2 [Compound 372, 3-[7-(3-Hydroxy-propoxy)-3-(pyridin-3-ylamino)-2,4-dihydro-indeno[1,2-c]pyrazol-6-yloxy]-propan-1-ol] | 100 | 15.5 |
| CCOc1cccc(Nc2[nH]nc3c2Cc2cc(OCC)c(OCC)cc2-3)c1 [Compound 375, (6,7-Diethoxy-2,4-dihydro-indeno[1,2-c]pyrazol-3-yl)-(3-ethoxy-phenyl)-amine] | 96.5 | 103 |
| COc1cc2c(cc1OC)-c1n[nH]c(Nc3cccnc3Cl)c1C2 [Compound 377, (2-Chloro-pyrid-3-yl)-(6,7-dimethoxy-2,4-dihydro-indeno[1,2-c]pyrazol-3-yl)-amine] | 99 | 8.57 |
| Cc1ccccc1CNc1[nH]nc2c1Cc1cc(F)ccc1-2 [Compound 378, (6-Fluoro-2,4-dihydro-indeno[1,2-c]pyrazol-3-yl)-(2-methyl-benzyl)-amine] | 94.5 | 467 |
| COc1cc2c(cc1OCC(O)CO)Cc1c-2n[nH]c1NCc1ccccc1F (centres unmarked) [Compound 387, 3-[3-(2-Fluoro-benzylamino)-7-methoxy-2,4-dihydro-indeno[1,2-c]pyrazol-6-yloxy]-propane-1,2-diol] | 100 | 11.6 |
| COc1cc2c(cc1OCC(O)CN1CCCC1)Cc1c-2n[nH]c1NCc1c(Cl)cccc1Cl (centres unmarked) [Compound 390, 1-[3-(2,6-Dichloro-benzylamino)-7-methoxy-2,4-dihydro-indeno[1,2-c]pyrazol-6-yloxy]-3-pyrrolidin-1-yl-propan-2-ol] | 99 | 2.03 |
| Clc1cccc(Nc2[nH]nc3c2Cc2c(OCCCN4CCOCC4)cccc2-3)c1 [Compound 392, (3-Chloro-phenyl)-[5-(3-morpholin-4-yl-propoxy)-2,4-dihydro-indeno[1,2-c]pyrazol-3-yl]-amine] | 80 | 153 |
| Fc1cccc(Nc2[nH]nc3c2Cc2c(OCCCN4CCOCC4)cccc2-3)c1 [Compound 393, (3-Fluoro-phenyl)-[5-(3-morpholin-4-yl-propoxy)-2,4-dihydro-indeno[1,2-c]pyrazol-3-yl]-amine] | 94.5 | 174 |
| CCOc1cccc(Nc2[nH]nc3c2Cc2c(OCCCN4CCOCC4)cccc2-3)c1 [Compound 394, (3-Ethoxy-phenyl)-[5-(3-morpholin-4-yl-propoxy)-2,4-dihydro-indeno[1,2-c]pyrazol-3-yl]-amine] | 91 | 329 |
| COc1cc2c(cc1OC)-c1nn(C(=O)Nc3cccc(F)c3)c(Nc3cccc(F)c3)c1C2 [Compound 395, 3-(3-Fluoro-phenylamino)-6,7-dimethoxy-4H-indeno[1,2-c]pyrazole-2-carboxylic acid (3-fluoro-phenyl)-amide] | 88 | 686 |
| COc1cc2c(cc1OCC(O)CN1CCCC1)Cc1c-2n[nH]c1NCc1ccccc1F (centres unmarked) [Compound 397, 1-[3-(2-Fluoro-benzylamino)-7-methoxy-2,4-dihydro-indeno[1,2-c]pyrazol-6-yloxy]-3-pyrrolidin-1-yl-propan-2-ol] | 92 | 7.7 |

The remaining lines, values ahead:

| inhibition at 10 µM [%] | IC50 [nM] | Compound |
| --- | --- | --- |
| 90 | 196 | c1cncc(Nc2[nH]nc3c2Cc2sccc2-3)c1 [Compound 402, (5,7-Dihydro-1-thia-4,5-diaza-cyclopenta[a]pentalen-6-yl)-pyridin-3-yl-amine] |
| 96 | 85.9 | Clc1cccc(Nc2[nH]nc3c2Cc2sccc2-3)c1 [Compound 403, (3-Chloro-phenyl)-(5,7-dihydro-1-thia-4,5-diaza-cyclopenta[a]pentalen-6-yl)-amine] |
| 74.5 | 1110 | Fc1ccc(Nc2[nH]nc3c2Cc2sccc2-3)cc1Cl [Compound 404, (3-Chloro-4-fluoro-phenyl)-(5,7-dihydro-1-thia-4,5-diaza-cyclopenta[a]pentalen-6-yl)-amine] |
| 94.5 | 63.5 | CCOc1cccc(Nc2[nH]nc3c2Cc2sccc2-3)c1 [Compound 405, (5,7-Dihydro-1-thia-4,5-diaza-cyclopenta[a]pentalen-6-yl)-(3-ethoxy-phenyl)-amine] |
| 96 | 75 | COc1cc2c(cc1OC)-c1nn(C(C)=O)c(Nc3cccc(F)c3)c1C2 [Compound 406, 1-[3-(3-Fluoro-phenylamino)-6,7-dimethoxy-4H-indeno[1,2-c]pyrazol-2-yl]-ethanone] |
| 39 | 9880 | CCOC(=O)CNC(=O)n1nc2c(c1Nc1cccc(F)c1)Cc1cc(OC)c(OC)cc1-2 [Compound 407, {[3-(3-Fluoro-phenylamino)-6,7-dimethoxy-4H-indeno[1,2-c]pyrazole-2-carbonyl]-amino}-acetic acid ethyl ester] |
| 83 | 687 | COc1cc2c(cc1OC)-c1nn(COC(=O)C(C)(C)C)c(Nc3cccc(F)c3)c1C2 [Compound 408, 2,2-Dimethyl-propionic acid 3-(3-fluoro-phenylamino)-6,7-dimethoxy-4H-indeno[1,2-c]pyrazol-2-ylm ethyl ester] |
| 85.5 | 108 | COc1cc2c(cc1OC)-c1c(c(Nc3cccc(F)c3)nn1COC(=O)C(C)(C)C)C2 [Compound 409, 2,2-Dimethyl-propionic acid 3-(3-fluoro-phenylamino)-6,7-dimethoxy-4H-indeno[1,2-c]pyrazol-1-ylm ethyl ester] |
| 83.5 | 1080 | COc1cc2c(cc1OC)-c1n[nH]c(Nc3cccc(F)c3Br)c1C2 [Compound 410, (2-Bromo-3-fluoro-phenyl)-(6,7-dimethoxy-2,4-dihydro-indeno[1,2-c]pyrazol-3-yl)-amine] |
| 14.5 | 82.3 | CCOC(=O)CCNC(=O)n1nc2c(c1Nc1ccccc1)Cc1cc(OC)c(OC)cc1-2 [Compound 411, 3-[(6,7-Dimethoxy-3-phenlylamino-4H-indeno[1,2-c]pyrazole-2-carbonyl)-amino]-propionic acid ethyl ester] |
| 44 | 12700 | COC(=O)C(CC(C)C)NC(=O)n1nc2c(c1Nc1cccc(F)c1)Cc1cc(OC)c(OC)cc1-2 (centres unmarked) [Compound 412, 2-{[3-(3-Fluoro-phenylamino)-6,7-dimethoxy-4H-indeno[1,2-c]pyrazole-2-carbonyl]-amino}-4-methyl-pentanoic acid methyl ester] |
